These results are taken from patent US7994209B2, “3-phenoxymethylpyrrolidine compounds” (Theravance, Inc., priority 2009, dated 2011).

As usually defined, the Ki is the dissociation constant of the complex between target and ligand, obtained from inhibition or displacement. Low values mean a stronger hold on the target, high ones a looser hold on the target.

Test [1] deals with T1, hSERT (Homo sapiens, UniProt P31645). Description: hSERT neurotransmitter uptake assay (3H-5-HT), Assay 2. Format: cell-based. Also noted: expressed in transfected cells; host or cells: HEK-293. As to conditions: serotonin reuptake inhibition, 3H-5-HT uptake, HEK-293 hSERT cells (values without asterisk); read-out: SERT pIC50 (converted).
T1 sequence (P31645 whole entry): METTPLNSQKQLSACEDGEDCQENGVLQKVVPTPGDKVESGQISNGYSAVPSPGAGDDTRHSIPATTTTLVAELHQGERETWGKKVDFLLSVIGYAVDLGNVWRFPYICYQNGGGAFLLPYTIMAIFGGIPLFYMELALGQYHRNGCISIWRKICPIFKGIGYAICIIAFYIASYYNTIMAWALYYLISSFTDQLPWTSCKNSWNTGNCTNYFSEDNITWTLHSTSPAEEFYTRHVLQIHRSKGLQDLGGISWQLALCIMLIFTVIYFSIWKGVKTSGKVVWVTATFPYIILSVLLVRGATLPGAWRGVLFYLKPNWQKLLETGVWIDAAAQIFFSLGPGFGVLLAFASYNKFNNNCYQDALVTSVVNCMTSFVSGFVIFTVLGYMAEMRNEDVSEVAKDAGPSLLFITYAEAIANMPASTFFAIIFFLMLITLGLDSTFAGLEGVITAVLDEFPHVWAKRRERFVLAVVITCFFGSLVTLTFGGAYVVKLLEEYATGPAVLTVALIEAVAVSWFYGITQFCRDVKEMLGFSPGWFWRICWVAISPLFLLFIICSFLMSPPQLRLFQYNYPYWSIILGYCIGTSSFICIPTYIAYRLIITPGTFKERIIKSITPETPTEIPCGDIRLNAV
Test [2] addresses T2, hNET (Homo sapiens, UniProt P23975). Put plainly: hNET neurotransmitter uptake assay (3H-NE), Assay 2. As to conditions: norepinephrine reuptake inhibition, 3H-NE uptake, HEK-293 hNET cells (values without asterisk); read-out: NET pIC50 (converted). Format: cell-based. Also noted: expressed in transfected cells; host or cells: HEK-293.
For test [3], the target named is T2, hNET. Put plainly: hNET membrane radioligand binding assay (3H-nisoxetine), Assay 1.
Test [4] has as its target T1, hSERT. Put plainly: hSERT membrane radioligand binding assay (3H-citalopram), Assay 1. As to conditions: SERT pKi, hSERT HEK-293 membranes, 1.0 nM 3H-citalopram; values given as lower bounds.

T2 sequence (P23975 whole entry): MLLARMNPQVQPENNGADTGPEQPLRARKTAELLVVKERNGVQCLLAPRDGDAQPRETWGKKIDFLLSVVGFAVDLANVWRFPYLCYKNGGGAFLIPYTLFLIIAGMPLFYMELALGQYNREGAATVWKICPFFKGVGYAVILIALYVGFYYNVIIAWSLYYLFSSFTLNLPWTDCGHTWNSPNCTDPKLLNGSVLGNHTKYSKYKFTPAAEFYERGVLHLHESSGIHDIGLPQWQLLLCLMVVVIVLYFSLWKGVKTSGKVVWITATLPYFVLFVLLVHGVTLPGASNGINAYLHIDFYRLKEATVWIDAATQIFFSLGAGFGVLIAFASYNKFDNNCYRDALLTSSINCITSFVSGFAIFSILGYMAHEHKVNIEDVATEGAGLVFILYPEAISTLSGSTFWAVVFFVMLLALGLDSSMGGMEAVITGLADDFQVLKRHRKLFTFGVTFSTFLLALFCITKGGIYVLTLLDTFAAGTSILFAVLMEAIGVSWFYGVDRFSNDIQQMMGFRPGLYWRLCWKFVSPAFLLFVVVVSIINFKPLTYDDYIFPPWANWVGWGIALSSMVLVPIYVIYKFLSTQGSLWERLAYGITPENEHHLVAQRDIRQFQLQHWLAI

Turning to `Cc1c(Cl)cccc1O[C@H](CC(C)C)[C@H]1CCNC1` [Example 10-31, (S)-3-[(R)-1-(3-Chloro-2-methylphenoxy)-3-methylbutyl]pyrrolidine], the IC50 at hSERT [1] and on hNET [2] was no more than 10 nM in each case. For the same compound, the Ki at hNET [3] and on hSERT [4] was no more than 10 nM throughout.
As to `CC(C)C[C@H](Oc1ccc(C(F)(F)F)cc1)[C@H]1CCNC1` [Example 10-16, (S)-3-[(S)-3-Methyl-1-(4-trifluoromethylphenoxy)butyl]pyrrolidine], the IC50 at hSERT [1] and on hNET [2] was no more than 10 nM throughout. Further, the inhibition constant Ki at hNET [3] and at hSERT [4] was no more than 10 nM throughout.
Take `CC(C)C[C@@H](Oc1cccc(Cl)c1F)[C@H]1CCNC1` [Example 10-18, (S)-3-[(R)-1-(3-Chloro-2-fluorophenoxy)-3-methylbutyl]pyrrolidine]: the IC50 at hSERT [1] and on hNET [2] was no more than 10 nM each time. For the same compound, the Ki at hNET [3] and on hSERT [4] was no more than 10 nM each time.
As to `CC[C@H](Oc1ccc(F)cc1Cl)[C@H]1CCNC1` [Example 2-32, (S)-3-[(S)-1-(2-Chloro-4-fluorophenoxy)propyl]pyrrolidine], the IC50 on hSERT [1] and at hNET [2] was no more than 10 nM each time. The Ki at hNET [3] and on hSERT [4] was no more than 10 nM each time.
For `Cc1c(Cl)cccc1O[C@H](C(C)C)[C@H]1CCNC1` [Example 6-40, (S)-3-[(R)-1-(3-Chloro-2-methylphenoxy)-2-methylpropyl]pyrrolidine], the IC50 on hSERT [1] and at hNET [2] was no more than 10 nM each time. Moreover, the Ki on hNET [3] and at hSERT [4] was no more than 10 nM each time.
In the case of `CC[C@H](Oc1cccc2ccccc12)[C@H]1CCNC1` [Example 13, (S)-3-[(s)-1-(Naphthalen-1-yloxy)propyl]pyrrolidine], the IC50 at hSERT [1] and on hNET [2] was no more than 10 nM throughout. In addition, the Ki on hNET [3] and at hSERT [4] was no more than 10 nM throughout.
Consider `CC[C@H](Oc1c(F)cc(Cl)cc1F)[C@H]1CCNC1` [Example 2-48, (S)-3-[(S)-1-(4-Chloro-2,6-difluorophenoxy)propyl]pyrrolidine], for which the IC50 on hSERT [1] and on hNET [2] was no more than 10 nM each time. The Ki on hNET [3] and on hSERT [4] was no more than 10 nM in each case.
For `CC(C)C[C@H](Oc1ccc(Cl)cc1F)[C@H]1CCNC1` [Example 10-41, (S)-3-[(S)-1-(4-Chloro-2-fluorophenoxy)-3-methylbutyl]pyrrolidine], the IC50 at hSERT [1] and on hNET [2] was no more than 10 nM throughout. Besides, the Ki on hNET [3] and at hSERT [4] was no more than 10 nM each time.
Take `CC[C@H](Oc1c(F)ccc(OC)c1Cl)[C@H]1CCNC1` [Example 2-44, (S)-3-[(S)-1-(2-Chloro-6-fluoro-3-methoxyphenoxy)propyl]pyrrolidine]: the IC50 at hSERT [1] and on hNET [2] was no more than 10 nM throughout. Also, the Ki at hNET [3] and at hSERT [4] was no more than 10 nM each time.
For the compound `CC(C)C[C@H](Oc1ccc(Cl)cc1)[C@H]1CCNC1` [Example 10-13, (S)-3-[(S)-1-(4-Chlorophenoxy)-3-methylbutyl]pyrrolidine], the IC50 at hSERT [1] and at hNET [2] was no more than 10 nM each time. The inhibition constant Ki on hNET [3] and on hSERT [4] was no more than 10 nM each time.
For the compound `Cc1cc(O[C@@H](C(C)C)[C@H]2CCNC2)ccc1Cl` [Example 6-70, (S)-3-[(S)-1-(4-Chloro-3-methylphenoxy)-2-methylpropyl]pyrrolidine], the IC50 at hSERT [1] and at hNET [2] was no more than 10 nM each time. Further, the Ki on hNET [3] and at hSERT [4] was no more than 10 nM in each case.
Turning to `Cc1c(Cl)cccc1O[C@@H](C(C)C)[C@H]1CCNC1` [Example 6-39, (S)-3-[(S)-1-(3-Chloro-2-methylphenoxy)-2-methylpropyl]pyrrolidine], the IC50 on hSERT [1] and at hNET [2] was no more than 10 nM in each case. The inhibition constant Ki at hNET [3] and on hSERT [4] was no more than 10 nM in each case.
As for `CC[C@H](Oc1ccc(Cl)cc1C(F)(F)F)[C@H]1CCNC1` [Example 2-75, (S)-3-[(S)-1-(4-Chloro-2-trifluoromethylphenoxy)propyl]pyrrolidine], the IC50 at hSERT [1] is no more than 100 nM; at hNET [2], no more than 10 nM. Further, the Ki on hNET [3] and on hSERT [4] was no more than 10 nM in each case.
Take `CC(C)C(Oc1ccc(Cl)cc1C(F)(F)F)C1CCNC1` (centres unmarked) [Example 6-50, 3-[1-(4-Chloro-2-trifluoromethylphenoxy)-2-methylpropyl]pyrrolidine]: the IC50 at hSERT [1] is no more than 100 nM; at hNET [2], no more than 10 nM. The Ki at hNET [3] and at hSERT [4] was no more than 10 nM in each case.
In the case of `CCC[C@H](Oc1c(F)ccc(OC)c1Cl)[C@H]1CCNC1` [Example 4-43, (S)-3-[(S)-1-(2-Chloro-6-fluoro-3-methoxyphenoxy)butyl]pyrrolidine], the IC50 at hSERT [1] and at hNET [2] was no more than 10 nM each time. Besides, the Ki on hNET [3] and at hSERT [4] was no more than 10 nM each time.
Consider `COc1cc(Cl)ccc1O[C@H](C1CC1)[C@H]1CCNC1` [Example 16-38, (S)-3-[(R)-(4-Chloro-2-methoxyphenoxy)cyclopropylmethyl]pyrrolidine], for which the IC50 is no more than 10 nM at hSERT [1] and no more than 100 nM at hNET [2]. Moreover, the Ki on hNET [3] and on hSERT [4] was no more than 10 nM throughout.
As to `CC(C)[C@H](Oc1c(Cl)c(F)cc(F)c1Cl)[C@H]1CCNC1` [Example 6-38, (S)-3-[(S)-1-(2,6-Dichloro-3,5-difluorophenoxy)-2-methylpropyl]pyrrolidine], the IC50 was no more than 100 nM on hSERT [1] and no more than 10 nM on hNET [2]. The Ki at hNET [3] and on hSERT [4] was no more than 10 nM in each case.
With `CCC[C@@H](Oc1cc(Cl)cc(Cl)c1)[C@H]1CCNC1` [Example 4-7, (S)-3-[(R)-1-(3,5-Dichlorophenoxy)butyl]pyrrolidine], the IC50 on hSERT [1] and at hNET [2] was no more than 10 nM each time. The Ki on hNET [3] and on hSERT [4] was no more than 10 nM each time.
As for `CCCC[C@@H](Oc1ccccc1C(F)(F)F)[C@H]1CCNC1` [Example 8-2, (S)-3-[(R)-1-(2-Trifluoromethylphenoxy)pentyl]pyrrolidine], the IC50 at hSERT [1] and on hNET [2] was no more than 100 nM in each case. For the same compound, the Ki at hNET [3] and at hSERT [4] was no more than 10 nM in each case.
Regarding `CC[C@H](Oc1ccc(Cl)cc1C)[C@H]1CCNC1` [Example 2-58, (S)-3-[(S)-1-(4-Chloro-2-methylphenoxy)propyl]pyrrolidine], the IC50 on hSERT [1] and at hNET [2] was no more than 10 nM throughout. The Ki on hNET [3] and on hSERT [4] was no more than 10 nM in each case.
`CCCC[C@@H](Oc1cc(Cl)cc(Cl)c1)[C@H]1CCNC1` [Example 8-13, (S)-3-[(R)-1-(3,5-Dichlorophenoxy)pentyl]pyrrolidine]: the IC50 at hSERT [1] and on hNET [2] was no more than 10 nM in each case. The inhibitory constant (Ki) on hNET [3] and at hSERT [4] was no more than 10 nM each time.
As to `Cc1cc(Cl)cc(Cl)c1O[C@@H](C1CC1)[C@H]1CCNC1` [Example 16-77, (S)-3-[(S)cyclopropyl-(2,4-dichloro-6-methylphenoxy)methyl]pyrrolidine], the values for the IC50 on hSERT [1] and at hNET [2] were no more than 10 nM and no more than 100 nM, respectively. The inhibition constant (Ki) on hNET [3] and on hSERT [4] was no more than 10 nM each time.
On to `CC(C)C[C@H](Oc1cccc(F)c1)[C@H]1CCNC1` [Example 10-5, (S)-3-[(S)-1-(3-Fluorophenoxy)-3-methylbutyl]pyrrolidine], for which the IC50 at hSERT [1] is no more than 100 nM; on hNET [2], no more than 10 nM. The inhibition constant (Ki) at hNET [3] and at hSERT [4] was no more than 10 nM each time.
Turning to `CC[C@@H](Oc1cc(Cl)cc(Cl)c1)[C@@H]1CCNC1` [Example 2-19, (R)-3-[(R)-1-(3,5-Dichlorophenoxy)propyl]pyrrolidine], the IC50 on hSERT [1] and on hNET [2] was no more than 100 nM each time. The Ki at hNET [3] and on hSERT [4] was no more than 10 nM throughout.
`Clc1cccc(Cl)c1O[C@@H](C1CC1)[C@H]1CCNC1` [Example 16-44, (S)-3-[(S)cyclopropyl-(2,6-dichlorophenoxy)-methyl]pyrrolidine]: the IC50 on hSERT [1] is no more than 316 nM; at hNET [2], no more than 10 nM. In addition, the inhibitory constant (Ki) on hNET [3] is no more than 10 nM; at hSERT [4], no more than 100 nM.
On to `CC[C@H](Oc1cc(F)c(Cl)cc1OC)[C@H]1CCNC1` [Example 2-70, (S)-3-[(S)-1-(4-Chloro-5-fluoro-2-methoxyphenoxy)propyl]pyrrolidine], for which the figures for the IC50 at hSERT [1] and at hNET [2] were no more than 100 nM and no more than 10 nM, respectively. The inhibition constant Ki on hNET [3] and on hSERT [4] was no more than 10 nM throughout.
With `CC(C)[C@@H](Oc1cccc(Cl)c1Cl)[C@H]1CCNC1` [Example 6-14, (S)-3-[(R)-1-(2,3-Dichlorophenoxy)-2-methylpropyl]pyrrolidine], the IC50 on hSERT [1] and on hNET [2] was no more than 10 nM throughout. Besides, the Ki at hNET [3] and at hSERT [4] was no more than 10 nM in each case.
In the case of `CC(C)C[C@@H](Oc1ccc(Cl)cc1Cl)[C@H]1CCNC1` [Example 10-44, (S)-3-[(R)-1-(2,4-Dichlorophenoxy)-3-methylbutyl]pyrrolidine], the IC50 on hSERT [1] and at hNET [2] was no more than 10 nM in each case. Moreover, the Ki is no more than 100 nM at hNET [3] and no more than 10 nM on hSERT [4].
`CC[C@H](Oc1ccccc1Cl)[C@H]1CCNC1` [Example 2-23, (S)-3-[(S)-1-(2-Chlorophenoxy)propyl]pyrrolidine]: the IC50 was no more than 100 nM at hSERT [1] and no more than 10 nM at hNET [2]. Moreover, the Ki at hNET [3] and at hSERT [4] was no more than 10 nM throughout.
